≈ marks a conversion by molar mass, not a printed value.
Key:
[1] = system: Staphylococcus aureus X1.1; assay: MIC, standard agar-dilution assay, Staphylococcus aureus X1.1; format: cell-based; details: Staphylococcus aureus X1.1; agar dilution
[2] = system: Staphylococcus aureus V41; assay: MIC, standard agar-dilution assay, Staphylococcus aureus V41; format: cell-based; details: Staphylococcus aureus V41; penicillin-resistant strain; agar dilution
[3] = system: Staphylococcus aureus X400; assay: MIC, standard agar-dilution assay, Staphylococcus aureus X400; format: cell-based; details: Staphylococcus aureus X400; methicillin-resistant strain; agar dilution
[4] = system: Staphylococcus aureus S13E; assay: MIC, standard agar-dilution assay, Staphylococcus aureus S13E; format: cell-based; details: Staphylococcus aureus S13E; agar dilution
[5] = system: Staphylococcus epidermidis EPI1; assay: MIC, standard agar-dilution assay, Staphylococcus epidermidis EPI1; format: cell-based; details: Staphylococcus epidermidis EPI1; agar dilution
[6] = system: Staphylococcus epidermidis EPI2; assay: MIC, standard agar-dilution assay, Staphylococcus epidermidis EPI2; format: cell-based; details: Staphylococcus epidermidis EPI2; agar dilution
[7] = system: Streptococcus pyogenes C203; assay: MIC, standard agar-dilution assay, Streptococcus pyogenes C203; format: cell-based; details: Streptococcus pyogenes C203; agar dilution
[8] = system: Streptococcus pneumoniae Park I; assay: microbe, parasite or virus in culture; format: cell-based; details: Streptococcus pneumoniae Park I; agar dilution
Streptococcus Group 9960 = assay: MIC, standard agar-dilution assay, Streptococcus Group 9960; format: cell-based; details: Streptococcus Group 9960; agar dilution
[9] = system: Haemophilus influenzae Holt; assay: MIC, standard agar-dilution assay, Haemophilus influenzae Holt; format: cell-based; details: Haemophilus influenzae Holt; ampicillin-sensitive strain; agar dilution
[10] = system: Haemophilus influenzae R252; assay: MIC, standard agar-dilution assay, Haemophilus influenzae R252; format: cell-based; details: Haemophilus influenzae R252; ampicillin-resistant strain; agar dilution
Staphylococcus aureus = assay: MIC, broth-dilution microtiter test, Staphylococcus aureus; format: cell-based; details: broth-dilution microtiter
Text: (§1) The MIC's in Table X were obtained using conventional broth-dilution microtiter tests.

Streptococcus bovis 80 = assay: MIC, broth-dilution microtiter test, Streptococcus bovis 80; format: cell-based; details: Streptococcus bovis 80; broth-dilution microtiter
Text: as §1

[11] = system: Pasteurella multocida 17E; assay: MIC, broth-dilution microtiter test, Pasteurella multocida 17E; format: cell-based; details: Pasteurella multocida 17E; bovine isolate; broth-dilution microtiter
Text: as §1

[12] = system: Pasteurella multocida 60A; assay: MIC, broth-dilution microtiter test, Pasteurella multocida 60A; format: cell-based; details: Pasteurella multocida 60A; avian isolate; broth-dilution microtiter
Text: as §1

[13] = system: Pasteurella hemolytica 22C; assay: MIC, broth-dilution microtiter test, Pasteurella hemolytica 22C; format: cell-based; details: Pasteurella hemolytica 22C; broth-dilution microtiter
Text: as §1

Mycoplasma gallisepticum = assay: MIC, broth-dilution microtiter test, Mycoplasma gallisepticum; format: cell-based; details: Mycoplasma gallisepticum; broth-dilution microtiter
Text: as §1

Mycoplasma synoviae = assay: MIC, broth-dilution microtiter test, Mycoplasma synoviae; format: cell-based; details: Mycoplasma synoviae; broth-dilution microtiter
Text: as §1

Mycoplasma hyorhinis = assay: MIC, broth-dilution microtiter test, Mycoplasma hyorhinis; format: cell-based; details: Mycoplasma hyorhinis; broth-dilution microtiter
Text: as §1

Mycoplasma hyopneumoniae = assay: MIC, broth-dilution microtiter test, Mycoplasma hyopneumoniae; format: cell-based; details: Mycoplasma hyopneumoniae; broth-dilution microtiter
Text: as §1

[14] = system: Streptococcus pyogenes C203; assay: In vivo protection of mice experimentally infected with S. pyogenes C203; details: mice, doses given 1 and 4 hours post-infection
Protocol: The C-20 modified derivatives of this invention have shown in vivo antimicrobial activity against experimentally-induced infections in laboratory animals. When two doses of test compound were administered to mice experimentally infected with S. pyogenes C203, the activity observed was measured as an ED50 value [effective dose in mg/kg to protect 50% of the test animals: see Warren Wick, et al., J. Bacteriol. 81, 233-235 (1961)].

Pasteurella multocida = assay: Subcutaneous treatment of Pasteurella multocida-infected chicks; format: in vivo, one-day-old chicks; details: 30 mg/kg × 2, 1 and 4 hours post-challenge
Protocol: Many of the C-20 modified derivatives of this invention have also shown in vivo antibacterial activity against infections induced by gram-negative bacteria. Tables XII and XIII summarize the results of tests in which illustrative compounds were evaluated against Pasteurella infection in one-day-old chicks. The compounds were administered parenterally or orally after challenge of the chicks with Pasteurella multocida (0.1 ml of a 10^-4 dilution of a twenty-hour tryptose broth culture of an avian P. multocida given subcutaneously). In these tests, unless indicated otherwise, all non-medicated infected chicks died within 24 hours of Pasteurella challenge. In the tests summarized in Table XII the compounds were administered by subcutaneous injection at a dosage of 30 mg/kg, 1 and 4 hours post-challenge of the chicks with P. multocida. In the test summarized in Table XIII the compounds were administered by gavage at 1 and 5 hours post-challenge of the chicks with P. multocida.

[15] = system: Streptococcus Group D X66; assay: MIC, standard agar-dilution assay, Streptococcus Group D X66; format: cell-based; details: Streptococcus Group D X66; agar dilution

## CCC1OC(=O)CC(O)C(C)C(OC2OC(C)C(O)C(N(C)C)C2O)C(CCN2C(=O)c3ccccc3C2=O)CC(C)C(=O)C=CC(C)=CC1COC1OC(C)C(O)C(OC)C1OC (stereo not drawn) [Compound 43, 20-DH-DO-20-N-Phthalimidodesmycosin]
[1]
  MIC: 0.12 mg/L (≈ 0.133 µM)
[2]
  MIC: 0.12 mg/L (≈ 0.133 µM)
[3]
  MIC: 0.5 mg/L (≈ 0.554 µM)
[4]
  MIC: 0.25 mg/L (≈ 0.277 µM)
[5]
  MIC: 0.12 mg/L (≈ 0.133 µM)
[6]
  MIC: 0.25 mg/L (≈ 0.277 µM)
[7]
  MIC: 0.25 mg/L (≈ 0.277 µM)
[8]
  MIC: 2 mg/L (≈ 2.21 µM)
Streptococcus Group 9960
  MIC: 4 mg/L (≈ 4.43 µM)
[9]
  MIC: 32 mg/L (≈ 35.4 µM)
[10]
  MIC: 32 mg/L (≈ 35.4 µM)
Staphylococcus aureus
  MIC: 0.78 mg/L (≈ 0.864 µM)
Streptococcus bovis 80
  MIC: 6.25 mg/L (≈ 6.92 µM)
[11]
  MIC: 25 mg/L (≈ 27.7 µM)
[12]
  MIC: 12.5 mg/L (≈ 13.8 µM)
[13]
  MIC: 25 mg/L (≈ 27.7 µM)
Mycoplasma gallisepticum
  MIC: 0.78 mg/L (≈ 0.864 µM)
Mycoplasma synoviae
  MIC: 0.78 mg/L (≈ 0.864 µM)
Mycoplasma hyorhinis
  MIC: 50 mg/L (≈ 55.4 µM)
Mycoplasma hyopneumoniae
  MIC: 12.5 mg/L (≈ 13.8 µM)
[14]
  ED50, Oral: 16 mg/kg × 2
  ED50, Subcutaneous: 1.6 mg/kg × 2
Pasteurella multocida
  Number of Deaths/Number Treated: 10/10

## CCOC(=O)NN(CCC1CC(C)C(=O)C=CC(C)=CC(COC2OC(C)C(O)C(OC)C2OC)C(CC)OC(=O)CC(O)C(C)C1OC1OC(C)C(O)C(N(C)C)C1O)C(=O)OCC (stereo not drawn) [Compound 45, 20-DH-DO-20-[N-(Ethoxycarbonyl)-N-(ethoxycarbonylamino)]aminodesmycosin]
[1]
  MIC: 0.5 mg/L (≈ 0.536 µM)
[2]
  MIC: 0.5 mg/L (≈ 0.536 µM)
[3]
  MIC: 1 mg/L (≈ 1.07 µM)
[4]
  MIC: 0.5 mg/L (≈ 0.536 µM)
[5]
  MIC: 0.5 mg/L (≈ 0.536 µM)
[6]
  MIC: 0.25 mg/L (≈ 0.268 µM)
[7]
  MIC: 2 mg/L (≈ 2.15 µM)
[8]
  MIC: 0.5 mg/L (≈ 0.536 µM)
[15]
  MIC: 16 mg/L (≈ 17.2 µM)
Streptococcus Group 9960
  MIC: 8 mg/L (≈ 8.58 µM)
[9]
  MIC: 32 mg/L (≈ 34.3 µM)
[10]
  MIC: 32 mg/L (≈ 34.3 µM)
Staphylococcus aureus
  MIC: 1.56 mg/L (≈ 1.67 µM)
Streptococcus bovis 80
  MIC: 12.5 mg/L (≈ 13.4 µM)
[11]
  MIC: 25 mg/L (≈ 26.8 µM)
[12]
  MIC: 25 mg/L (≈ 26.8 µM)
[13]
  MIC: 50 mg/L (≈ 53.6 µM)
Mycoplasma gallisepticum
  MIC: 0.39 mg/L (≈ 0.418 µM)
Mycoplasma synoviae
  MIC: 6.25 mg/L (≈ 6.71 µM)
Mycoplasma hyorhinis
  MIC: -- (Not active at 50 mcg/ml, the highest level tested)
Mycoplasma hyopneumoniae
  MIC: 6.25 mg/L (≈ 6.71 µM)
[14]
  ED50, Oral: > 50 mg/kg × 2
  ED50, Subcutaneous: 2.1 mg/kg × 2
Pasteurella multocida
  Number of Deaths/Number Treated: 9/10

## CCC1OC(=O)CC(O)C(C)C(OC2OC(C)C(O)C(N(C)C)C2O)C(CCOc2cccnc2)CC(C)C(=O)C=CC(C)=CC1COC1OC(C)C(O)C(OC)C1OC (stereo not drawn) [Compound 49, 20-DH-20-O-(Pyridin-3-yl)desmycosin]
[1]
  MIC: 0.5 mg/L (≈ 0.588 µM)
[2]
  MIC: 0.5 mg/L (≈ 0.588 µM)
[3]
  MIC: 0.5 mg/L (≈ 0.588 µM)
[4]
  MIC: 0.5 mg/L (≈ 0.588 µM)
[5]
  MIC: 0.5 mg/L (≈ 0.588 µM)
[6]
  MIC: 0.25 mg/L (≈ 0.294 µM)
[7]
  MIC: 2 mg/L (≈ 2.35 µM)
[8]
  MIC: 2 mg/L (≈ 2.35 µM)
[15]
  MIC: 16 mg/L (≈ 18.8 µM)
Streptococcus Group 9960
  MIC: 16 mg/L (≈ 18.8 µM)
[9]
  MIC: 16 mg/L (≈ 18.8 µM)
[10]
  MIC: 16 mg/L (≈ 18.8 µM)
Staphylococcus aureus
  MIC: 1.56 mg/L (≈ 1.83 µM)
Streptococcus bovis 80
  MIC: 25 mg/L (≈ 29.4 µM)
[11]
  MIC: 25 mg/L (≈ 29.4 µM)
[12]
  MIC: 25 mg/L (≈ 29.4 µM)
[13]
  MIC: 25 mg/L (≈ 29.4 µM)
Mycoplasma gallisepticum
  MIC: 0.78 mg/L (≈ 0.917 µM)
Mycoplasma synoviae
  MIC: 3.12 mg/L (≈ 3.67 µM)
Mycoplasma hyorhinis
  MIC: 50 mg/L (≈ 58.8 µM)
Mycoplasma hyopneumoniae
  MIC: 25 mg/L (≈ 29.4 µM)
Pasteurella multocida
  Number of Deaths/Number Treated: 9/10
